Assay [1] deals with Potassium voltage-gated channel subfamily KQT member 2 (Mus musculus) (UniProt Q9Z351). The assay is described as follows: Relative efficacy as ratio of maximal current amplitudes for compound and reference. The class given is functional.
Assay [2] concerns the target Potassium voltage-gated channel subfamily KQT member 2 (Mus musculus, UniProt Q9Z351). The assay is described as follows: Effect on outward potassium currents in whole-cell patch clamp assay of HEK 293 cells expressing cloned mouse KCNQ2 channel at -40 mV. It is filed as functional, cell-based, HEK293. On the technique in general: In patch-clamp work, channel activity is measured electrically.

Chain of Potassium voltage-gated channel subfamily KQT member 2 (Mus musculus) (Q9Z351 whole entry): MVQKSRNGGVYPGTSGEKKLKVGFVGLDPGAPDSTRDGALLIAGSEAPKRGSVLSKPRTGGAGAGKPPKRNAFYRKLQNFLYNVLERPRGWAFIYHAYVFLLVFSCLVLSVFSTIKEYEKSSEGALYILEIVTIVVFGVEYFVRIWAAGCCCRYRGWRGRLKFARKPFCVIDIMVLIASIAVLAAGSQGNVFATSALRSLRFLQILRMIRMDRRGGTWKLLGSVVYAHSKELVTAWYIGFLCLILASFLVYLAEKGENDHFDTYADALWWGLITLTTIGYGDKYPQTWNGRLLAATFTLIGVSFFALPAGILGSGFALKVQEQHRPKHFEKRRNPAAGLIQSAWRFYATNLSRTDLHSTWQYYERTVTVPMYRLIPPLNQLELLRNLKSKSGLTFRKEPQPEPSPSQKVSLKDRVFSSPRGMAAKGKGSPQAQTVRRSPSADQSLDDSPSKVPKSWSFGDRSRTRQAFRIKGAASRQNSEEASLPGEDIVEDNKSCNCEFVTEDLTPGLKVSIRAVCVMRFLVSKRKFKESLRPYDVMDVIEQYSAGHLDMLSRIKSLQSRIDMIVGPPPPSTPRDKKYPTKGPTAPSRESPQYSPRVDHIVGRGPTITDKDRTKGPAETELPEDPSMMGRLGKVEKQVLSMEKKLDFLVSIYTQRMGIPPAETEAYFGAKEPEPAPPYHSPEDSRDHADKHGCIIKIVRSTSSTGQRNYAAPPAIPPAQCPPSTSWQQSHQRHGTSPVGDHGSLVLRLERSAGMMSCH
Chain of Potassium voltage-gated channel subfamily KQT member 2 (Q9Z351 whole entry): as above

On to `CCOC(=O)Nc1ccc(NCc2ccc(F)cc2)cc1N`, for which the E/Eref in assay [1] turned out to be 1.6.
Consider `C[C@H](NC(=O)/C=C/c1ccccc1F)c1cccc(-c2cnccn2)c1`, for which the E/Eref in assay [1] stood at 1.57. For the same compound, it took 370 nM to reach a half-maximal effect in assay [2] (EC50).
With `C[C@H](NC(=O)/C=C/c1ccccc1F)c1ccc2c(c1)N(CC1CC1)CCO2`, the E/Eref in assay [1] stood at 1.83.
For the compound `C[C@H](NC(=O)/C=C/c1ccccc1)c1cccc(N2CCOCC2)c1`, in assay [1], the E/Eref came out at 1.4. In addition, the EC50 (commonly the concentration at which the effect is half-maximal) in assay [2] came to 3200 nM.
In the same order, the values of `C[C@H](NC(=O)/C=C/c1ccccc1F)c1cccc(-c2ccccn2)c1` are 1.8 and 1200 nM.
As to `C[C@H](NC(=O)/C=C/c1ccccc1F)c1cccc(-n2cccn2)c1`, the E/Eref in assay [1] turned out to be 1.6. For the same compound, the EC50 in assay [2] was found to be 120 nM.
In the same order, the values of `C[C@H](NC(=O)/C=C/c1ccccc1)c1cccc(-n2cccn2)c1` are 1.9 and 1200 nM.
In the same order, the values of `C[C@H](NC(=O)/C=C/c1ccccc1Cl)c1ccc2c(c1)OCO2` are 1.1 and 20 nM.
For `C[C@H](NC(=O)/C=C/c1ccccc1F)c1cccc(-c2ccc(F)nc2)c1`, in that order: 0.85 and 10 nM.
Consider `C[C@H](NC(=O)/C=C/c1ccccc1F)c1cccc(-n2cncn2)c1`, for which, in assay [1], the E/Eref amounted to 1.2. Moreover, a half-maximal effect in assay [2] (EC50) was put at 330 nM.

For the origin of these results see ChEMBL document CHEMBL1142835, “(S,E)-N-[1-(3-heteroarylphenyl)ethyl]-3-(2-fluorophenyl)acrylamides: synthesis and KCNQ2 potassium channel opener activity” (Bioorg Med Chem Lett, 2005).
